Test results taken from US12528801B2 (Givaudan SA, priority 2019, dated 2026).

Target: T1, hTRPM8 (Homo sapiens, UniProt Q7Z2W7)
T1 construct: expressed in transfected cells
Assay: Assay on TRPM8 modulators: calcium imaging (Fluo-4, Flexstation) in HEK293 cell line stably expressing hTRPM8
Format: cell-based
Details: HEK293 cells stably expressing hTRPM8; calcium influx, Fluo-4, Flexstation 3; sigmoidal dose-response fit
Experimental: A HEK293 cell line stably expressing hTRPM8 was generated according to Klein of at, (Chem. Senses 36: […], 2011) and receptor activation was monitored by calcium imaging in a Flexstation. For Ca-imaging assays of TRPM8 channel activation, cells were seeded on day 0 at a density of 12000 cells per well in Dulbecco's modified Eagle medium (DMEM) containing 9% foetal bovine serum in black, clear bottom 96-well plates that had been coated with 0.001% polyethyleneimine (molecular weight=60 000, Acros Organics). On day 2, agonists were evaluated via calcium imaging using Fluo-4. Briefly, growth medium was discarded, and the cells were incubated in the dark for 1 h at 37° C. in 50 μL loading buffer consisting of 2.7 μM Fluo-4 AM (Invitrogen) and […] probenecid (Sigma-Aldrich) in DMEM (without serum). After incubation, the plates were washed five times with 100 μL of assay buffer (in mM: 130 NaCl, 5 KCl, 10 HEPES, 2 CaCl2, and 10 glucose, pH7.4.) and further incubated in the dark at room temperature for 30 min. The cells were then washed five times with 100 μL assay buffer and then calcium influx to serial dilutions of inventive compounds were measured in a Flexstation 3 (Molecular Devices). Receptor activation was initiated following addition of 20 μl of a 10-fold concentrated ligand stock solution, which is also prepared in assay buffer. Fluorescence was continuously monitored for 15 seconds prior to ligand addition and for 105 seconds after ligand addition, for a total of 120 seconds. Maximal receptor activation in relation to solvent control and relative to 31.6 μM menthol is determined. Data from serial dilutions were processed with a KNIME workflow to fit a sigmoidal dose-response curve and to extrapolate […].

T1 sequence (Q7Z2W7 whole entry): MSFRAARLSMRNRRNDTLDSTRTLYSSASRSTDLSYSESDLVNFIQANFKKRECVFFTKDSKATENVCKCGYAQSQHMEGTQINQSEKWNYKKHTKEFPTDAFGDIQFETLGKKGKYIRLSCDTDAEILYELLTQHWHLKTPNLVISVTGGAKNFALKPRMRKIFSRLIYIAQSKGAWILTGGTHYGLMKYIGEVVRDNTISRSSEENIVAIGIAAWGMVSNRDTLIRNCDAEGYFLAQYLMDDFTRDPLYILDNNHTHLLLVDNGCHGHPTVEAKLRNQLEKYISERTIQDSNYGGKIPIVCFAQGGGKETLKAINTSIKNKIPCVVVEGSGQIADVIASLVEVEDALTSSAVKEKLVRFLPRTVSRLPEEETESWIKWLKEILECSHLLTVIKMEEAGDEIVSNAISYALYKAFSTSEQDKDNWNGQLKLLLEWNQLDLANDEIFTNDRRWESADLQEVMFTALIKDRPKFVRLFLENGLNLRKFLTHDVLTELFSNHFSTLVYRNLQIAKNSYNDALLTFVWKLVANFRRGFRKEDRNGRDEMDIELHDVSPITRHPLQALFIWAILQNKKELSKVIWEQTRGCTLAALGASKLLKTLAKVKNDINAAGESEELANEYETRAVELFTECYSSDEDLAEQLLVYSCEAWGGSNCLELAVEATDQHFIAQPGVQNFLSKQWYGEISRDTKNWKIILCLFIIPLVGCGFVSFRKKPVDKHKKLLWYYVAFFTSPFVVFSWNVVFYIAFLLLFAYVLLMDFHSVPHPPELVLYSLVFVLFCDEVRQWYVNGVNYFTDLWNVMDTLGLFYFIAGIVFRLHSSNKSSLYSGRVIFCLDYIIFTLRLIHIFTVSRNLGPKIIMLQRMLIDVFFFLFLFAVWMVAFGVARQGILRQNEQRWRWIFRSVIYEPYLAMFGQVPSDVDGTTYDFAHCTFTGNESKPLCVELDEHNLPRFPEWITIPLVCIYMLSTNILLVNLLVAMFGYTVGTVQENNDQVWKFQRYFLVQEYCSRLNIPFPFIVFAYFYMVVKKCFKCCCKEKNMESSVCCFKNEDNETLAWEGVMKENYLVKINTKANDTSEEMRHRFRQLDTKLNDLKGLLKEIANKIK

Compound: N#C[C@@H]1C[C@@H]1C(=O)N1CCCCC1c1nc(-c2ccccc2)c[nH]1 (relative stereo) [Compound 90, cis-2-(2-(4-phenyl-1H-imidazol-2-yl)piperidine-1-carbonyl)cyclopropane-1-carbonitrile]
- EC50: 1000 to 35000 nM

Compound: CSC(C)C(=O)N1CCCCC1c1nc(-c2cncnc2)c[nH]1 (stereo not drawn) [Compound 115, 2-(methylthio)-1-(2-(4-(pyrimidin-5-yl)-1H-imidazol-2-yl)piperidin-1-yl)propan-1-one]
- EC50: 1000 to 35000 nM

Compound: CSC(C)C(=O)N1CCCCC1c1nc(-c2cnn(C(F)(F)F)c2)c[nH]1 (stereo not drawn) [Compound 106, 2-(methylthio)-1-(2-(4-(1-(trifluoromethyl)-1H-pyrazol-4-yl)-1H-imidazol-2-yl)piperidin-1-yl)propan-1-one]
- EC50: 50 to 300 nM

Compound: CSC(C)C(=O)N1CCCCC1c1ncc(-c2ccccc2)o1 (stereo not drawn) [Compound 138, 2-(methylthio)-1-(2-(5-phenyloxazol-2-yl)piperidin-1-yl)propan-1-one]
- EC50: 300 to 1000 nM

Compound: CSC(C)C(=O)N1CCCCC1c1ncc(-c2ccc(F)c(F)c2)[nH]1 (stereo not drawn) [Compound 60, 1-(2-(5-(3,4-difluorophenyl)-1H-imidazol-2-yl)piperidin-1-yl)-2-(methylthio)propan-1-one]
- EC50: < 50 nM

Compound: CSC(C)C(=O)N1CCCCC1c1nc(-c2ccc(C(C)C)cc2)c[nH]1 (stereo not drawn) [Compound 40, 1-(2-(4-(4-isopropylphenyl)-1H-imidazol-2-yl)piperidin-1-yl)-2-(methylthio)propan-1-one]
- EC50: < 50 nM

Compound: CC(C(=O)N1CCCCC1c1nc(-c2ccccc2)c[nH]1)C1CCC1 (stereo not drawn) [Compound 148, 2-cyclobutyl-1-(2-(4-phenyl-1H-imidazol-2-yl)piperidin-1-yl)propan-1-one]
- EC50: 50 to 300 nM

Compound: O=C(C1CCCC1)N1CCCCC1c1nc(-c2ccccc2)c[nH]1 (stereo not drawn) [Compound 186, cyclopentyl(2-(4-phenyl-1H-imidazol-2-yl)piperidin-1-yl)methanone]
- EC50: 300 to 1000 nM

Compound: CSC(C)C(=O)N1CCCCC1c1ncc(-c2ccc(N(C)C)cc2)[nH]1 (stereo not drawn) [Compound 72, 1-(2-(5-(4-(dimethylamino)phenyl)-1H-imidazol-2-yl)piperidin-1-yl)-2-(methylthio)propan-1-one]
- EC50: 50 to 300 nM

Compound: CCC(C)S(=O)(=O)N1CCCCC1c1ncc(-c2ccc(C)cc2)[nH]1 (stereo not drawn) [Compound 204, 1-(sec-butylsulfonyl)-2-(5-(p-tolyl)-1H-imidazol-2-yl)piperidine]
- EC50: 1000 to 35000 nM

Compound: O=C(C1CC1)N1CCCCC1c1nc(-c2ccccc2)c[nH]1 (stereo not drawn) [Compound 187, cyclopropyl(2-(4-phenyl-1H-imidazol-2-yl)piperidin-1-yl)methanone]
- EC50: 1000 to 35000 nM

Compound: Cc1ccc(-c2cnc(C3CCCCN3C(=O)C(C)C)[nH]2)cc1 (stereo not drawn) [Compound 170, 2-methyl-1-(2-(5-(p-tolyl)-1H-imidazol-2-yl)piperidin-1-yl)propan-1-one]
- EC50: < 50 nM

Compound: CSC(C)C(=O)N1CCCCC1c1ncc(Br)[nH]1 (stereo not drawn) [Compound 88, 1-(2-(5-bromo-1H-imidazol-2-yl)piperidin-1-yl)-2-(methylthio)propan-1-one]
- EC50: 300 to 1000 nM

Compound: CCC(C)C(=O)N1CCCCC1c1ncc(-c2cccc(C)c2)[nH]1 (stereo not drawn) [Compound 201, 2-methyl-1-(2-(5-(m-tolyl)-1H-imidazol-2-yl)piperidin-1-yl)butan-1-one]
- EC50: 50 to 300 nM

Compound: CSC(C)C(=O)N1CCCCC1c1nc(-c2ccc(C)c(Cl)c2)c[nH]1 (stereo not drawn) [Compound 28, 1-(2-(4-(3-chloro-4-methylphenyl)-1H-imidazol-2-yl)piperidin-1-yl)-2-(methylthio)propan-1-one]
- EC50: < 50 nM

Compound: CSC(C)C(=O)N1CCCCC1c1nc(-c2cccc(CN(C)C)c2)c[nH]1 (stereo not drawn) [Compound 25, 1-(2-(4-(3-((dimethylamino)methyl)phenyl)-1H-imidazol-2-yl)piperidin-1-yl)-2-(methylthio)propan-1-one]
- EC50: 300 to 1000 nM

Compound: CSC(C)C(=O)N1CCCCC1c1nc(-c2cc(C)ccc2C)c[nH]1 (stereo not drawn) [Compound 20, 1-(2-(4-(2,5-dimethylphenyl)-1H-imidazol-2-yl)piperidin-1-yl)-2-(methylthio)propan-1-one]
- EC50: 300 to 1000 nM

Compound: C=C(C)C(C)(C)C(=O)N1CCCCC1c1ncc(-c2ccc(C)cc2)[nH]1 (stereo not drawn) [Compound 140, 2,2,3-trimethyl-1-(2-(5-(p-tolyl)-1H-imidazol-2-yl)piperidin-1-yl)but-3-en-1-one]
- EC50: < 50 nM

Compound: CSC(C)C(=O)N1CCCCC1c1nc(-c2ccc(C(C)O)cc2)c[nH]1 (stereo not drawn) [Compound 31, 1-(2-(4-(4-(1-hydroxyethyl)phenyl)-1H-imidazol-2-yl)piperidin-1-yl)-2-(methylthio)propan-1-one]
- EC50: 50 to 300 nM

Compound: CSC(C)C(=O)N1CCCCC1c1cc(-c2ccc(C)cc2)on1 (stereo not drawn) [Compound 132, 2-(methylthio)-1-(2-(5-(p-toly)isoxazol-3-yl)piperidin-1-yl)propan-1-one]
- EC50: 50 to 300 nM

Compound: O=C(c1cnns1)N1CCCCC1c1nc(-c2ccccc2)c[nH]1 (stereo not drawn) [Compound 1, (2-(4-phenyl-1H-imidazol-2-y)piperidin-1-yl)(1,2,3-thiadiazol-5-yl)methanone]
- EC50: 1000 to 35000 nM

Compound: CSC(C)C(=O)N1CCCCC1c1nnn(-c2ccc(C)cc2)n1 (stereo not drawn) [Compound 104, 2-(methylthio)-1-(2-(2-(p-toly)-2H-tetrazol-5-yl)piperidin-1-yl)propan-1-one]
- EC50: < 50 nM

Compound: CSC(C)C(=O)N1CCCCC1c1nc(-c2cccc(C)c2)c[nH]1 (stereo not drawn) [Compound 111, 2-(methylthio)-1-(2-(4-(m-tolyl)-1H-imidazol-2-yl)piperidin-1-yl)propan-1-one]
- EC50: 50 to 300 nM

Compound: COCC(OC)C(=O)N1CCCCC1c1nc(-c2ccccc2)c[nH]1 (stereo not drawn) [Compound 144, 2,3-dimethoxy-1-(2-(4-phenyl-1H-imidazol-2-yl)piperidin-1-yl)propan-1-one]
- EC50: 1000 to 35000 nM

Compound: CSC(C)C(=O)N1CCCCC1c1nc(-c2ccc(S(C)(=O)=O)cc2)c[nH]1 (stereo not drawn) [Compound 35]
- EC50: 1000 to 35000 nM

Compound: CC(C)C(C)C(=O)N1CCCCC1c1nc(-c2ccccc2)c[nH]1 (stereo not drawn) [Compound 145, 2,3-dimethyl-1-(2-(4-phenyl-1H-imidazol-2-yl)piperidin-1-yl)butan-1-one]
- EC50: 50 to 300 nM

Compound: CCCC(=O)N1CCCCC1c1nc(-c2ccccc2)c[nH]1 (stereo not drawn) [Compound 49, 1-(2-(4-phenyl-1H-imidazol-2-yl)piperidin-1-yl)butan-1-one]
- EC50: 300 to 1000 nM

Compound: CSC(C)C(=O)N1CCNCC1c1ncc(-c2ccc(C)cc2)[nH]1 (stereo not drawn) [Compound 206, 2-(methylthio)-1-(2-(5-(p-toly)-1H-imidazol-2-yl)piperazin-1-yl)propan-1-one]
- EC50: < 50 nM

Compound: CSCC(=O)N1CCCCC1c1nc(-c2ccccc2)c[nH]1 (stereo not drawn) [Compound 118, 2-(methylthio)-1-(2-(4-phenyl-1H-imidazol-2-yl)piperidin-1-yl)ethan-1-one]
- EC50: 300 to 1000 nM

Compound: C=CC=CCC(=O)N1CCCCC1c1nc(-c2ccccc2)c[nH]1 (stereo not drawn) [Compound 50, 1-(2-(4-phenyl-1H-imidazol-2-yl)piperidin-1-yl)hexa-3,5-dien-1-one]
- EC50: 1000 to 35000 nM

Compound: O=C(C1CSC1)N1CCCCC1c1nc(-c2ccccc2)c[nH]1 (stereo not drawn) [Compound 2, (2-(4-phenyl-1H-imidazol-2-yl)piperidin-1-yl)(thietan-3-yl)methanone]
- EC50: 300 to 1000 nM

Compound: CSC(C)C(=O)N1CCCCC1c1nc(-c2csc(C)c2)c[nH]1 (stereo not drawn) [Compound 110, 2-(methylthio)-1-(2-(4-(5-methylthiophen-3-yl)-1H-imidazol-2-yl)piperidin-1-yl)propan-1-one]
- EC50: < 50 nM

Compound: CSC(C)C(=O)N1CCCCC1c1nc(-c2ccccc2C)c[nH]1 (stereo not drawn) [Compound 112, 2-(methylthio)-1-(2-(4-(o-tolyl)-1H-imidazol-2-yl)piperidin-1-yl)propan-1-one]
- EC50: 50 to 300 nM

Compound: CCOC(C)C(=O)N1CCCCC1c1ncc(-c2cccc(F)c2)[nH]1 (stereo not drawn) [Compound 153, 2-ethoxy-1-(2-(5-(3-fluorophenyl)-1H-imidazol-2-yl)piperidin-1-yl)propan-1-one]
- EC50: 1000 to 35000 nM

Compound: CSC(C)C(=O)N1CCCCC1c1nc(-c2ccc(NS(C)(=O)=O)cc2)c[nH]1 (stereo not drawn) [Compound 191, N-(4-(2-(1-(2-(methylthio)propanoyl)piperidin-2-yl)-1H-imidazol-4-yl)phenyl)methanesulfonamide]
- EC50: 1000 to 35000 nM

Compound: CSC(C)C(=O)N1CCCCC1c1nc(-c2ccc3ccsc3c2)c[nH]1 (stereo not drawn) [Compound 46, 1-(2-(4-(benzo[b]thiophen-6-yl)-1H-imidazol-2-yl)piperidin-1-yl)-2-(methylthio)propan-1-one]
- EC50: < 50 nM

Compound: Cc1ccc(-c2cnc(C3CCCCN3C(=O)C(C)(C)C(C)C)[nH]2)cc1 (stereo not drawn) [Compound 141, 2,2,3-trimethyl-1-(2-(5-(p-tolyl)-1H-imidazol-2-yl)piperidin-1-yl)butan-1-one]
- EC50: < 50 nM

Compound: CCC(C)C(=O)N1CCCCC1c1ncc(-c2ccc(CC#N)cc2)[nH]1 (stereo not drawn) [Compound 197, 2-(4-(2-(1-(2-methylbutanoyl)piperidin-2-yl)-1H-imidazol-5-yl)phenyl)acetonitrile]
- EC50: < 50 nM

Compound: CSC(C)C(=O)N1CCCCC1c1nnc(-c2ccc(C)cc2)[nH]1 (stereo not drawn) [Compound 131, 2-(methylthio)-1-(2-(5-(p-tolyl)-4H-1,2,4-triazol-3-yl)piperidin-1-yl)propan-1-one]
- EC50: < 50 nM
